Results as given in article PMC7486443, “Generation of Phenothiazine with Potent Anti-TLK1 Activity for Prostate Cancer Therapy” (iScience, 2020).

Experiments:
Experiment in all cases: biochemical
Set-up in all cases: DiscoverX KINOMEscan scanMAX competition binding panel, single concentration, percent of control; remaining binding: dose or concentration left out as unconfirmed
Details in all cases: KINOMEscan binding, percent of control; read-out: Table S4_SCANMAX REPORT - related to Fig. 1 / Percent Control
MYLK = MYLK (Homo sapiens, UniProt Q15746)
MEK4 = target: T1, MEK4 (Homo sapiens, UniProt P45985)
T1 construct: gene MAP2K4

MRCKB = target: T2, MRCKB (Homo sapiens, UniProt Q9Y5S2)
T2 construct: gene CDC42BPB

PRKCD = PRKCD (Homo sapiens, UniProt Q05655)
[1] = target: T3, ABL1(F317I)-nonphosphorylated (Homo sapiens, UniProt P00519, F317I)
T3 construct: nonphosphorylated

ACVR2A = ACVR2A (Homo sapiens, UniProt P27037)
Chain of ACVR2A (P27037 whole entry): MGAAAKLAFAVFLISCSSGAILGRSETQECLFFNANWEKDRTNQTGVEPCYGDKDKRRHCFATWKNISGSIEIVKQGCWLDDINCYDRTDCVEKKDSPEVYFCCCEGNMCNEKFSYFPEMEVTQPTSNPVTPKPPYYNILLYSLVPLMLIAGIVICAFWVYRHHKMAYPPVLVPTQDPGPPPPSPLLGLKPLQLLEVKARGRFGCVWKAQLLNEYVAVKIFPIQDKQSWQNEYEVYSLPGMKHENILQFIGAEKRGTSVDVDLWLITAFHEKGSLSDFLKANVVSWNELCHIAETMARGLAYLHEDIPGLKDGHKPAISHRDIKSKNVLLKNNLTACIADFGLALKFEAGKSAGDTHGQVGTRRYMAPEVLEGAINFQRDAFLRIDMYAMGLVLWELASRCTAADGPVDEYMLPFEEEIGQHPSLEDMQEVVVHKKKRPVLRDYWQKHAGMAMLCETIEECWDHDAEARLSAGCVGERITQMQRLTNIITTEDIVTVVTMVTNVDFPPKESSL

S6K1 = target: T4, S6K1 (Homo sapiens, UniProt P23443)
T4 construct: gene RPS6KB1
T4 sequence (P23443 whole entry): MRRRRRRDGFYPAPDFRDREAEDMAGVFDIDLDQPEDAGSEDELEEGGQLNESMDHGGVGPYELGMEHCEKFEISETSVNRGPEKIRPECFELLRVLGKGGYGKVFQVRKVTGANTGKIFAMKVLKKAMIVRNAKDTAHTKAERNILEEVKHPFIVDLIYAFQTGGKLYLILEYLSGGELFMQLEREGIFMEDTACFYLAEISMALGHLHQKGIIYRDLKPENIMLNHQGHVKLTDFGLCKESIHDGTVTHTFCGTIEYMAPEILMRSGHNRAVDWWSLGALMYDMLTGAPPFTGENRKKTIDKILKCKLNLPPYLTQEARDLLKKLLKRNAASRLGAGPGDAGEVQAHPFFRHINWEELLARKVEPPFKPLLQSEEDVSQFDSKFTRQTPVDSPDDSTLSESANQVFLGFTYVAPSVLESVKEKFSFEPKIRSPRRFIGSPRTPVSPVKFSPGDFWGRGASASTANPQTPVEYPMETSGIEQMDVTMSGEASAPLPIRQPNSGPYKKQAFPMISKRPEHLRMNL

FGFR1 = FGFR1 (Homo sapiens, UniProt P11362)
Chain of FGFR1 (P11362 whole entry): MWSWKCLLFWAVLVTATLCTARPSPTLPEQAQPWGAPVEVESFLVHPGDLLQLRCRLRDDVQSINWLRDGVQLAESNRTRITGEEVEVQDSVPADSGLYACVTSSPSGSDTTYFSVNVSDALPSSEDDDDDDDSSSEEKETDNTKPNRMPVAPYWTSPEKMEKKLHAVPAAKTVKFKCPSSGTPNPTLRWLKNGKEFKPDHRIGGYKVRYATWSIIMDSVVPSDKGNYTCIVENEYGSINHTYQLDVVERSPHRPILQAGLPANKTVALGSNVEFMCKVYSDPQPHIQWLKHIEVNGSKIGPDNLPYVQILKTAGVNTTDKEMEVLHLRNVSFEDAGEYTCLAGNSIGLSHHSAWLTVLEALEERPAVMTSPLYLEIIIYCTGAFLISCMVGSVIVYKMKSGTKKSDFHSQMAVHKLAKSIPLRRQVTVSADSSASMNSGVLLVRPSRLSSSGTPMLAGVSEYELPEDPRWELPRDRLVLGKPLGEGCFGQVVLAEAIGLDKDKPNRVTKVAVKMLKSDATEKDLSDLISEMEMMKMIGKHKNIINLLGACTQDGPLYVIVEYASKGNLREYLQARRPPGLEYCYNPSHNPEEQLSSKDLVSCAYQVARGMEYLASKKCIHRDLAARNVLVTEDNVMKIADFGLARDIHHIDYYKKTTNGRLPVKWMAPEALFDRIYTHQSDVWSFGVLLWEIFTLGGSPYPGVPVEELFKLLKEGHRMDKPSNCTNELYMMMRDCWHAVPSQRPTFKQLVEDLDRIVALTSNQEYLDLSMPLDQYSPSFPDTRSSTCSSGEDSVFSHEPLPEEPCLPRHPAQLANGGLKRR

MKNK2 = MKNK2 (Homo sapiens, UniProt Q9HBH9)
MAP4K3 = MAP4K3 (Homo sapiens, UniProt Q8IVH8)
CAMK4 = CAMK4 (Homo sapiens, UniProt Q16566)
Chain of CAMK4 (Q16566 whole entry): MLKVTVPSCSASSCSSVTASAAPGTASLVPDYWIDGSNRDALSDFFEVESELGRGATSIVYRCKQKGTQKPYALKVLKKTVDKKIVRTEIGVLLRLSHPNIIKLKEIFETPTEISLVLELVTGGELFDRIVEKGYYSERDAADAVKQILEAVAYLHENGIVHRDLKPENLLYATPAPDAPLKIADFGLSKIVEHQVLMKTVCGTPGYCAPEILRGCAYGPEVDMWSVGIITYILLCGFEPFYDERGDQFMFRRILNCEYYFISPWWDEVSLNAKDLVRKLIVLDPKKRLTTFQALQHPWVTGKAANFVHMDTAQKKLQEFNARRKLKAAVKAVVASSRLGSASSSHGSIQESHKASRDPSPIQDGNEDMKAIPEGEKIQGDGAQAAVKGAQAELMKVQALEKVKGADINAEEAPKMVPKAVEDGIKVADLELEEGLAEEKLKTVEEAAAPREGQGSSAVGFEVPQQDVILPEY

SRPK2 = SRPK2 (Homo sapiens, UniProt P78362)
Chain of SRPK2 (P78362 whole entry): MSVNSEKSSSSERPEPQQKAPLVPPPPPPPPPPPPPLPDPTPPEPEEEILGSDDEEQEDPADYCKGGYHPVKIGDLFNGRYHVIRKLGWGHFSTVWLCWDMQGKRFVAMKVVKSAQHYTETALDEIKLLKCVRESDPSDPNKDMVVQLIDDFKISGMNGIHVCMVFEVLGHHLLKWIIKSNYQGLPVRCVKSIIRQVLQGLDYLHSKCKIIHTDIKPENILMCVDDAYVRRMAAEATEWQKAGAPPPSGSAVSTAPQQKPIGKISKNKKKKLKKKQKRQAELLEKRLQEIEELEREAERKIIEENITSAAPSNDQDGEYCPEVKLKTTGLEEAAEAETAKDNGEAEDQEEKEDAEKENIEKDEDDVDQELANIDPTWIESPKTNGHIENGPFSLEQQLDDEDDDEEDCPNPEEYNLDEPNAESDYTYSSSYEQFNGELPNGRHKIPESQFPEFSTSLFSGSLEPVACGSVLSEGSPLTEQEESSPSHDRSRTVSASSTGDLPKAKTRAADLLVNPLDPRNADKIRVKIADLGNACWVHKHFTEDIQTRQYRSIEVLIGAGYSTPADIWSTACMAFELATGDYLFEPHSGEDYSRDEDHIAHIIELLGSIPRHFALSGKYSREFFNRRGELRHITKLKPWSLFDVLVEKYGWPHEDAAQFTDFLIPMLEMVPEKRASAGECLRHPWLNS

PYK2 = target: T5, PYK2 (Homo sapiens, UniProt Q14289)
T5 construct: gene PTK2B

PRP4 = target: T6, PRP4 (Homo sapiens, UniProt Q13523)
T6 construct: gene PRPF4B

WEE2 = WEE2 (Homo sapiens, UniProt P0C1S8)
Chain of WEE2 (P0C1S8 whole entry): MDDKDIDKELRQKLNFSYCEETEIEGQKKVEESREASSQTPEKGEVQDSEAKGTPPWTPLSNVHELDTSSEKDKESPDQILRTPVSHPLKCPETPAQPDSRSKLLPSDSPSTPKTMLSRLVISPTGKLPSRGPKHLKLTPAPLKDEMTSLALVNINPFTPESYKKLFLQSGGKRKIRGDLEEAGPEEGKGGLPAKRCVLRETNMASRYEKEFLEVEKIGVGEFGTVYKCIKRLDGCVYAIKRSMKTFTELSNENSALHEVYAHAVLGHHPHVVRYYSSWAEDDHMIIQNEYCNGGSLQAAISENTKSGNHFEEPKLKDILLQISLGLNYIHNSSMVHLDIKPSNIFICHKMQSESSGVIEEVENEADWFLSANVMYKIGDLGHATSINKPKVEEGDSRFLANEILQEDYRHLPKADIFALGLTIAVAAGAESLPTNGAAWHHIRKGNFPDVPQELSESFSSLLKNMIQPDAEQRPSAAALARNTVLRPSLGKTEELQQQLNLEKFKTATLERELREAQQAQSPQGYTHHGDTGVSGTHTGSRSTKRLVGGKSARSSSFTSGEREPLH

MAP3K15 = MAP3K15 (Homo sapiens, UniProt Q6ZN16)
Chain of MAP3K15 (Q6ZN16 whole entry): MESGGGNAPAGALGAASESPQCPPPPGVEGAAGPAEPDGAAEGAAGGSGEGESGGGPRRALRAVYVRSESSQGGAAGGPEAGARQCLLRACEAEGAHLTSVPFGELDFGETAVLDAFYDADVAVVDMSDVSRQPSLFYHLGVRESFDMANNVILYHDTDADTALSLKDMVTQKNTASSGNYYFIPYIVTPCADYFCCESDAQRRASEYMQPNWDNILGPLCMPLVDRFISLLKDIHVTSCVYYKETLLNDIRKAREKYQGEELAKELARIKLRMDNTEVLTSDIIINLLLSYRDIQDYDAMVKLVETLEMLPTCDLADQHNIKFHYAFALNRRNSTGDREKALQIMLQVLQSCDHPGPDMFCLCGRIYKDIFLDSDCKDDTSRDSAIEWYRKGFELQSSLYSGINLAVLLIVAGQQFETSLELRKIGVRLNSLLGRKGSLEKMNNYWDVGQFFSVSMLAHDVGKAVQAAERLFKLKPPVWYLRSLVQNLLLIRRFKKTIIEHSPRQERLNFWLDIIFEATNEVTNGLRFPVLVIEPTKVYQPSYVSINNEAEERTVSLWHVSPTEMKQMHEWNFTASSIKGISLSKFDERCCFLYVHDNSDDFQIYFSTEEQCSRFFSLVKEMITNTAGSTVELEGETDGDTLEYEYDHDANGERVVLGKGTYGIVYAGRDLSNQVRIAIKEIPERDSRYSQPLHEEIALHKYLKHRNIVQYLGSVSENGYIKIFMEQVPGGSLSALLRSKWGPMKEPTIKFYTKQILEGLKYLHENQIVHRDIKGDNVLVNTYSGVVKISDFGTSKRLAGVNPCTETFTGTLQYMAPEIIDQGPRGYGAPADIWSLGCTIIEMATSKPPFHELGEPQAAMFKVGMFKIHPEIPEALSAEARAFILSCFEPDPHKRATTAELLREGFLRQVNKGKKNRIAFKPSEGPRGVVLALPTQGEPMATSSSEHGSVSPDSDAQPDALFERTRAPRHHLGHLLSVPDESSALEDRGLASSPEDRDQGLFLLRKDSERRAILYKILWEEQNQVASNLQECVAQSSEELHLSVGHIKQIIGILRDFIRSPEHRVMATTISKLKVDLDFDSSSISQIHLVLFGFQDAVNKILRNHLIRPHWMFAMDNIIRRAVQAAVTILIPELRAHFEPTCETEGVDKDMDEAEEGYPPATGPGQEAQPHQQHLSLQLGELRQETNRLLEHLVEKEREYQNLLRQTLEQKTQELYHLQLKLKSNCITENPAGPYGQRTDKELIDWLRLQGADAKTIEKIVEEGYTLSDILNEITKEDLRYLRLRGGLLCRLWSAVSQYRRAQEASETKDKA

TIE1 = TIE1 (Homo sapiens, UniProt P35590)
TAOK3 = TAOK3 (Homo sapiens, UniProt Q9H2K8)
MAP3K1 = MAP3K1 (Homo sapiens, UniProt Q13233)

## c1ccc2c(c1)Sc1ccccc1N2CCN1CCOCC1 [J54]
MYLK
  remaining binding: 97%
MEK4
  remaining binding: 100%
MRCKB
  remaining binding: 95%
PRKCD
  remaining binding: 100%
[1]
  remaining binding: 92%
ACVR2A
  remaining binding: 86%
S6K1
  remaining binding: 100%
FGFR1
  remaining binding: 94%
MKNK2
  remaining binding: 90%
MAP4K3
  remaining binding: 100%
CAMK4
  remaining binding: 94%
SRPK2
  remaining binding: 100%
PYK2
  remaining binding: 100%
PRP4
  remaining binding: 74%
WEE2
  remaining binding: 100%
MAP3K15
  remaining binding: 100%
TIE1
  remaining binding: 98%
TAOK3
  remaining binding: 100%
MAP3K1
  remaining binding: 100%
